Laboratory results taken from patent US20230075368A1, “IDENTIFICATION OF AN EGFR-BIN3 PATHWAY THAT ACTIVELY SUPPRESSES INVASION AND REDUCES TUMOR SIZE IN GLIOBLASTOMA” (The United States Govemment as represented by the …, priority 2020, published 2023).

Key:
STAT3 = experiment: Western blot of pSTAT3 and STAT3; format: cell-based, human; conditions: tofacitinib 1 μM, 24 hours; GBM12 and GBM6
Procedure: Mayo PDX cells were serum starved overnight. Following treatment for specific time, cells were harvested and lysed. The human glioblastoma tissues were ground in liquid nitrogen and then were lysed. […] TGFα antibody was from R&D system.
. . . […] A similar experiment was performed in GBM6 (FIG. 18F). […] The Western blot images are representative of three independent biological replicates. Actin served as loading control. Data are represented as mean±SEM from three independent experiments. *P<0.05, **P<0.01, ***P<0.001, unpaired two-tailed t-test.

GBM12, GBM6, and GBM22 = experiment: Bromodeoxyuridine cell proliferation assay; format: cell-based, human; conditions: 48 hours
Procedure: Cell proliferation was assessed using the bromodeoxyuridine (BrdU) cell proliferation enzyme-linked immunosorbent assay kit (Abcam, Cambridge, United Kingdom) according to the manufacturer's instructions.

Mayo PDX cells = experiment: Matrigel invasion assay; format: cell-based, human; conditions: low-dose EGF (5 ng/ml), 24 hours; GBM12 and GBM6
[1] = test system: GBM12 mouse intracranial tumors; experiment: Exogenous EGF infusion into GBM12 intracranial tumors; format: in vivo, mice; conditions: EGF infused into lateral ventricles by miniosmotic pump
Procedure: 4 to 6 weeks old female athymic nude mice were purchased from Charles River Laboratories. Mayo PDXs were injected into the right corpus striatum of the brains of 6-8 week-old nude mice using a stereotactic frame. […] Kaplan-Maier survival curves were calculated using GraphPad Prism 7.0 software. Alzet Osmotic pumps were installed for brain delivery of EGF or vehicle in tumor bearing mice. To monitor the mice with orthotropic xenografts, MRI was performed at the Mouse MRI Core, Advanced Imaging Research Center, at UT Southwestern.
Next, the impact of EGFR ligand on GBM invasion was examined in an orthotopic mouse model. To induce ligand activation of EGFR in vivo, ligand to EGFR-expressing tumors were provided by generating an autocrine loop or by exogenous infusion of ligand. In the autocrine loop experiment, ligand for EGFRwt is provided by the same cells that express the EGFR. Autocrine loops involving EGFR and its ligands are well described in GBM (Ramnarain et al. (2006) Cancer Res. 66: 867-874; Tang et al. (1997) J. Neurooncol. 35: 303-314). […]
Western blot analysis of TGFα, pEGFR, EGFR, and BIN3 in PDXs stably transfected with empty (GBM12V, GBM6V, GBM22V) or TGFα expressing vector (GBM12TGFα, GBM6TGFα, GBM22TGFα) is shown in FIG. 12A. […] Quantitative analysis of HNA positive cells in mouse tumor tissue sections. […]

RhoA = RhoA pull down assay (RhoA-GTP); format: cell-based, human; conditions: 24 hours, GBM12 and GBM6
Procedure: The amount of GTP-bound RhoA and Cdc42 were measured using RhoA and Cdc42 pull down assay kit (Cell Signaling) according to the protocol provided by the manufacturer. Briefly, cell lysates were incubated with either glutathione S-transferase (GST)-Rhotekin-RBD or GST-PAK-PBD beads 4° C. for 1 hour to pull down GTP-bound RhoA or Cdc42. Beads were washed four times in washing buffer and re-suspended in lysis buffer. RhoA-GTP and Cdc42-GTP were detected by Western blot using RhoA and Cdc42 antibodies.

[2] = test system: U251MG and U87MG cell lines; experiment: Matrigel invasion assay in established GBM lines; format: cell-based, human; conditions: for cell invasion: EGF 50 ng/ml
Procedure: Invasion status of cells was tested with Matrigel Boyden chamber assays (Fisher). 1×10^5 cells were plated on BD BioCoat Matrigel invasion chambers. 24 hours after treatment with drugs, invaded cells were stained with the HEMA-3 kit (Fisher). Invaded cells were counted in 4-5 random fields.
Referring to FIG. 6A-E, EGF inhibits EGFR overexpression induced cell invasion. […] Tetracycline induced EGFR overexpression was confirmed by Western blotting (FIG. 6E). The Western blot images are representative of three independent biological replicates. Actin served as loading control. Data are represented as mean±SEM from three independent experiments. **P<0.01, ***P<0.001, n.s. not significant, unpaired two-tailed t-test.

## C[C@@H]1CCN(C(=O)CC#N)C[C@@H]1N(C)c1ncnc2[nH]ccc12 [tofacitinib]
STAT3
  phosphorylation of STAT3: blocks phosphorylation
GBM12, GBM6, and GBM22; tofacitinib 1 μM
  proliferation (BrdU incorporation): induced proliferation

## EGF: Recombinant human EGF (AF-100) from Peprotech; EGFR ligand
Mayo PDX cells
  cell invasion: suppressed invasion
[1]
  tumor size (MRI): smaller tumors
[1]; H&E, SMI-31, HNA staining
  tumor invasiveness: noninvasive
RhoA; EGF 50 ng/ml
  RhoA activity: decreases the activity
[2]; EGFR overexpressed in U87MG and U251MG
  cell invasion: decreased invasion
[2]; U251MG and U87MG with low endogenous EGFR
  cell invasion: increased invasiveness
[2]; tetracycline induced EGFR overexpressing U251MG cells, plus EGF
  invasion increased by inducible EGFRwt expression: abolished
GBM12, GBM6, and GBM22; EGF 50 ng/ml
  proliferation (BrdU incorporation): induces proliferation

## HGF: the ligand for Met
RhoA; HGF
  RhoA activity: increase in RhoA activity
